Measured values published in ChEMBL document CHEMBL3352127, “Synthesis of oleanolic acid derivatives: In vitro, in vivo and in silico studies for PTP-1B inhibition” (Eur J Med Chem, 2014).
The source made the active and inactive calls. No cut-off for these calls is given here.

Columns and labels:
[1] = biological target: T1, Tyrosine-protein phosphatase non-receptor type 1 (Homo sapiens, UniProt P18031); experiment: Inhibition of purified human GST-tagged PTP-1B using p-nitrophenylphosphate as substrate by spectrophotometry
T1 sequence (P18031 whole entry): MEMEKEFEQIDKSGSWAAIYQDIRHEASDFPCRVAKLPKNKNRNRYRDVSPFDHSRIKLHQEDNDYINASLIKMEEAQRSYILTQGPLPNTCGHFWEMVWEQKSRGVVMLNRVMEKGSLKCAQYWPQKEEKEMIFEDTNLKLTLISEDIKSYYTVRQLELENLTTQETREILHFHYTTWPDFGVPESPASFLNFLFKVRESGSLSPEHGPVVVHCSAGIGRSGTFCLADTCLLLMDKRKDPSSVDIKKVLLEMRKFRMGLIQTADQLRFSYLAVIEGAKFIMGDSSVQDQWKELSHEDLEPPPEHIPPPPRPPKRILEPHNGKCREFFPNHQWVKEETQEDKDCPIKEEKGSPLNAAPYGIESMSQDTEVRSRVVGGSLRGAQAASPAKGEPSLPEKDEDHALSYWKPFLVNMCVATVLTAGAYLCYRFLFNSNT

[2] = biological target: T2, Low molecular weight phosphotyrosine protein phosphatase (Homo sapiens, UniProt P24666); experiment: Inhibition of human LMW-PTP IF2 using p-nitrophenylphosphate as substrate by spectrophotometry
T2 sequence (P24666 whole entry): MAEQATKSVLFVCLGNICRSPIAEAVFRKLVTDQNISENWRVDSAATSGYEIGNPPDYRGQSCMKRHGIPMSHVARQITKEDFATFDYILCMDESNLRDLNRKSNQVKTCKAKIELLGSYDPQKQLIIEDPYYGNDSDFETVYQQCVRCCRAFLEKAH

[3] = biological target: T2, Low molecular weight phosphotyrosine protein phosphatase; experiment: Inhibition of human LMW-PTP IF1 using p-nitrophenylphosphate as substrate by spectrophotometry
Rattus norvegicus [4] = experiment: Antidiabetic activity in NIDDM Wistar rat model assessed as reduction blood glucose level at 50 mg/kg, po measured after 1 hr post dose by glucometry; format: functional, organism-based; design: dose 50 mg/kg
[5] = biological target: T3, Tyrosine-protein phosphatase non-receptor type 2 (Homo sapiens, UniProt P17706); experiment: Inhibition of TC-PTP (unknown origin) using p-nitrophenylphosphate as substrate by spectrophotometry
T3 sequence (P17706 whole entry): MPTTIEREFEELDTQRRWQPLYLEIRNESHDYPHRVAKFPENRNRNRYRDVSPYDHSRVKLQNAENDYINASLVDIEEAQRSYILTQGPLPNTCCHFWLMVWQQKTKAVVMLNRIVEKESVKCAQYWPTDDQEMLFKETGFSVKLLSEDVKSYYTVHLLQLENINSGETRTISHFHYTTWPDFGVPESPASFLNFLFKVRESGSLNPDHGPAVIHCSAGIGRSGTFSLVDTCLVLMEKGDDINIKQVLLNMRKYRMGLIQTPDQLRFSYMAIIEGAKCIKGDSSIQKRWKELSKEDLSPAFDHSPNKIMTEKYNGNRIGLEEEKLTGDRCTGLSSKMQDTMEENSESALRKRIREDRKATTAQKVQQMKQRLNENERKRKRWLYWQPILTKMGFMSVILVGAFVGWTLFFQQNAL

Rattus norvegicus [6] = experiment: Antidiabetic activity in NIDDM Wistar rat model assessed as reduction blood glucose level at 50 mg/kg, po measured after 3 hrs post dose by glucometry; format: functional; design: scale not given: the % may be the effect or the level left
[7] = biological target: T1, Tyrosine-protein phosphatase non-receptor type 1; experiment: Non-competitive inhibition of purified human GST-tagged PTP-1B using p-nitrophenylphosphate as substrate by double-reciprocal plot method
[8] = biological target: T1, Tyrosine-protein phosphatase non-receptor type 1; experiment: Mixed-type inhibition of purified human GST-tagged PTP-1B using p-nitrophenylphosphate as substrate by double-reciprocal plot method

With `CCCO[C@H]1CC[C@]2(C)[C@H]3CC=C4[C@@H]5CC(C)(C)CC[C@]5(C(=O)O)CC[C@@]4(C)[C@]3(C)CC[C@H]2C1(C)C` the IC50 [1] was 36.5 µM.

For `CCO[C@H]1CC[C@]2(C)[C@H]3CC=C4[C@@H]5CC(C)(C)CC[C@]5(C(=O)O)CC[C@@]4(C)[C@]3(C)CC[C@H]2C1(C)C`, the IC50 [2] was 47.4 µM, the IC50 [3] was 16.4 µM and the Activity (Rattus norvegicus [4]) was “inactive”. For the same molecule, the IC50 [5] was 26 µM, the Activity (Rattus norvegicus [6]) was >20% and the Ki [7] was 4.8 µM. It also gave an IC50 [1] of 5.3 µM.

Molecule `CC(=O)O[C@H]1CC[C@]2(C)[C@H]3CC=C4[C@@H]5CC(C)(C)CC[C@]5(C(=O)O)CC[C@@]4(C)[C@]3(C)CC[C@H]2C1(C)C` [ACETYL OLEANOLIC ACID] has an IC50 [1] of 21.5 µM.

For `CC1(C)CC[C@]2(C(=O)O)CC[C@]3(C)C(=CC[C@@H]4[C@@]5(C)CC[C@H](OC(=O)/C=C/c6ccccc6)C(C)(C)[C@@H]5CC[C@]43C)[C@@H]2C1`, the IC50 [2] was 12.3 µM, the IC50 [3] was 6.9 µM and the Activity (Rattus norvegicus [4]) was “Active”. The IC50 [5] was 11.8 µM, the Activity (Rattus norvegicus [6]) was “Active” and the IC50 [1] was 6.1 µM. For the same molecule, the Ki [8] was 2.1 µM.

With `CC1(C)CC[C@]2(C(=O)O)CC[C@]3(C)C(=CC[C@@H]4[C@@]5(C)CC[C@H](OC(=O)c6ccccc6)C(C)(C)[C@@H]5CC[C@]43C)[C@@H]2C1` the IC50 [1] was 16.2 µM.

`C/C=C/C(=O)O[C@H]1CC[C@]2(C)[C@H]3CC=C4[C@@H]5CC(C)(C)CC[C@]5(C(=O)O)CC[C@@]4(C)[C@]3(C)CC[C@H]2C1(C)C` was tested, and the IC50 [1] was 17.8 µM.

Molecule `CO[C@H]1CC[C@]2(C)[C@H]3CC=C4[C@@H]5CC(C)(C)CC[C@]5(C(=O)O)CC[C@@]4(C)[C@]3(C)CC[C@H]2C1(C)C` has an IC50 [1] of 8.6 µM.
